Values of other authors, collected in US9968546B2, “Topical composition for skin treatment to reduce lines and wrinkles of the face and body using a dual DNA repair mechanism to address damage caused by aging and ultra-violet induced damage to the skin with combination of skin turgor enhancement compounds” (priority 2015, dated 2018).

Tests used:
melanin synthesis = conditions: concentration of 0.1%
[1] = clinically, versus regular Vitamin E

In the case of `CCCCCCCCC(CCCCCC)C(=O)OC[C@H](OC(=O)C(CCCCCC)CCCCCCCC)[C@H]1OC(=O)C(OC(=O)C(CCCCCC)CCCCCCCC)=C1OC(=O)C(CCCCCC)CCCCCCCC` (stereo partly drawn) [tetrahexyldecyl ascorbate], the “p53 expression induced by UV-B radiation” value (p53 expression) is listed as “decreases”, the “8-OHdG induced by UV-A radiation” value (8-OHdG) is listed as “decreases” and the “reduction of melanin synthesis” value (melanin synthesis) is listed as 80%.

In the case of `CC1(C)C=Cc2c(ccc3c2OC[C@@H](c2ccc(O)cc2O)C3)O1` [Glabridin], the “tyrosinase-inhibition activity relative to Kojic acid” value (tyrosinase; versus Kojic acid) is listed as 25 times and the “tyrosinase-inhibition activity relative to ascorbic acid” value (tyrosinase; versus ascorbic acid) is listed as 75 times.

In the case of Tocotrienol, the “strength and effectiveness at repairing skin damage relative to regular Vitamin E” value [1] is given as 40-50 times.
